# Publication PMC12663137 (Nature Communications, 2025)
# Values joined by “and” are separate entries in the source; they are usually repeats but may differ in a detail not shown here. Equal entries are not always repeated.
# Tests used:
# [1] = target: T1, SV2AEM WT or SV2AEM F188A (Homo sapiens, UniProt Q7L0J3); experiment: Dissociation kinetics of 3H-UCB-J (Fig. 4E); assay type: binding; conditions: WT
# T1 construct: expressed in transfected cells; host or cells: HEK293 (ATCC CRL-1573), crude membranes
# T1 sequence (Q7L0J3 141-742 F188A): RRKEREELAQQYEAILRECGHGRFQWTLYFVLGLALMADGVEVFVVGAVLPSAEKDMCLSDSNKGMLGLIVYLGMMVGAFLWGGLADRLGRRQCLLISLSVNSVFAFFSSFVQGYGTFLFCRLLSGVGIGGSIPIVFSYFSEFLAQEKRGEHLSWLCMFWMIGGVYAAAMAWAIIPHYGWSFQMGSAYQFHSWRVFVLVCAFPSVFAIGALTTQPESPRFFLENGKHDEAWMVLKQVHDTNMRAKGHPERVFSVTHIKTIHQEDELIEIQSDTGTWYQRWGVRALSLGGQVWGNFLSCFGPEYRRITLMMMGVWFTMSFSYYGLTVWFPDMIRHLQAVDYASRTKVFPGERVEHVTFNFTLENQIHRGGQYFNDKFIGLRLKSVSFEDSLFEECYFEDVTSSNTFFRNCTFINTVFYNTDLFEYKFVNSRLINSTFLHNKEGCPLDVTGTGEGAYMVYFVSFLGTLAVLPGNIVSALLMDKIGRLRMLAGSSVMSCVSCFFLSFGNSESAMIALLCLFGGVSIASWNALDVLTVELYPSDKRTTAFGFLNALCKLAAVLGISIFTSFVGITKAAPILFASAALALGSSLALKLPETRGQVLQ
# Experimental: (§1) Ligand binding studies were carried out using crude membranes prepared from HEK293 cells (ATCC, CRL-1573) overexpressing mVenus-SV2AWT or SV2AEM. Membranes were prepared either from transiently transfected cells or from baculovirus-infected cells as described previously. Cells were washed with DPBS (Ca^2+ and Mg^2+ free), followed by resuspending in cold SH buffer (10 mM HEPES-Tris pH 7.4, 320 mM sucrose) containing protease inhibitor cocktail (MedChemExpress) to a density of 10^7 cells/ml. This cell suspension was homogenized by passing through a bead homogenizer (Isobiotec) with 10-micron clearance bead on ice. The lysate was then centrifuged at 4000 × g for 5 min at 4 °C, and the supernatant was aliquoted, frozen in liquid nitrogen, and stored at −80 °C. The mVenus fluorescence estimated using fluorescence size-exclusion chromatography (FSEC) was used to normalize expression levels of mVenus-SV2A mutants studied as detailed previously. For all binding studies, membranes containing […] protein (estimated by BCA method) per reaction were used.
# (§2) After 2 h of incubation, ligand dissociation was initiated with 0.3 µM ^1H-UCB-J and radioactivity was monitored at indicated time points by trapping equal volume of membranes on PEI-treated Unifilter-GF/C 96-well filter plates. Dissociation half-life (t1/2) estimates were obtained by fitting the data to one-phase exponential decay using GraphPad Prism 10.
# [2] = target: T2, SV2AEM WT or SV2AEM F188A (Homo sapiens, UniProt Q7L0J3, F188A); experiment: Dissociation kinetics of 3H-UCB-J (Fig. 4E); assay type: binding; conditions: F188A
# T2 construct: expressed in transfected cells; host or cells: HEK293 (ATCC CRL-1573), crude membranes
# T2 sequence (Q7L0J3 141-742 F188A): as above
# Experimental: as §1, §2
# SV2A = target: T3, SV2A (Homo sapiens, UniProt Q7L0J3); experiment: Reduction of 3H-padsevonil (50 nM) binding by UCB1244283 (Fig. 5F); conditions: for 3H-Padsevonil binding (%): no UCB1244283 = 100%
# T3 construct: expressed in transfected cells; host or cells: HEK293 (ATCC CRL-1573), crude membranes
# T3 sequence (Q7L0J3 whole entry): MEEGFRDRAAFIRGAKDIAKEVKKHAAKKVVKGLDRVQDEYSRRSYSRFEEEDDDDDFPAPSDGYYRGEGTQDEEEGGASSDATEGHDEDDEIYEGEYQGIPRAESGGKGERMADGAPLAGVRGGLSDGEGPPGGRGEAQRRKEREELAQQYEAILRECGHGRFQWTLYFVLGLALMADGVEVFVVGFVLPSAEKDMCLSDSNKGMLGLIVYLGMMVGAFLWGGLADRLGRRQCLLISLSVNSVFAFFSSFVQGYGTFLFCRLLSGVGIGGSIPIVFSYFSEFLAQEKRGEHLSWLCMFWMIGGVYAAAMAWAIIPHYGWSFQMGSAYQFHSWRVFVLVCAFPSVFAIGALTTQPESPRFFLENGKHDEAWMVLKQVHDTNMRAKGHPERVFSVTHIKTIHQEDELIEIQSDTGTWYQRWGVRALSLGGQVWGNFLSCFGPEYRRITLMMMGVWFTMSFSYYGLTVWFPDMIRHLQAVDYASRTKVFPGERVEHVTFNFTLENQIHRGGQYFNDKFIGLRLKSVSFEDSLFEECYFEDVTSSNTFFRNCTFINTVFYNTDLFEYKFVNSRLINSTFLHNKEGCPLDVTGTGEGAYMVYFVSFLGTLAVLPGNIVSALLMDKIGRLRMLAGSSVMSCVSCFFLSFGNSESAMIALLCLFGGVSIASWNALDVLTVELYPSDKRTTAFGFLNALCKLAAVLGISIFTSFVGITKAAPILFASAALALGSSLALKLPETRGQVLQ
# Experimental: Binding observed with SV2AWT was defined as 100%. Data are shown as mean ± s.d.; n = 6 biological replicates. […] Data are shown as mean ± s.d.; n = 6 biological replicates. Significance values were obtained from ordinary one-way ANOVA test (n.s. not significant; **p-value = 0.0064; ****p-value < 0.0001). Source data for (C, F) are provided as a Source data file.
# as §1
smiles,measurement,setting,value
COc1ccccc1NC(=O)CC(C)Cc1cc(C)cc(C)c1 (centres unmarked) [UCB1244283],3H-UCB-J Binding (%),"[1]; 30 µM UCB1244283, 0 min",159.90% and 202.86% and 206.18%
same,3H-UCB-J Binding (%),"[1]; 30 µM UCB1244283, 4 min",62.83% and 91.12% and 108.82%
same,3H-UCB-J Binding (%),"[1]; 30 µM UCB1244283, 5 min",85.26% and 105.06% and 94.83%
same,3H-UCB-J Binding (%),"[1]; 30 µM UCB1244283, 6 min",84.91% and 66.93% and 87.39%
same,3H-UCB-J Binding (%),"[1]; 30 µM UCB1244283, 7 min",43.33% and 65.94% and 53.85%
same,3H-UCB-J Binding (%),"[1]; 30 µM UCB1244283, 8 min",39.38% and 72.33% and 39.29%
same,3H-UCB-J Binding (%),"[1]; 30 µM UCB1244283, 9 min",42.32% and 69.81% and 52.93%
same,3H-UCB-J Binding (%),"[1]; 30 µM UCB1244283, 10 min",57.05% and 78.11% and 55.34%
same,3H-UCB-J Binding (%),"[1]; 30 µM UCB1244283, 20 min",16.75% and 27.97% and 21.29%
same,3H-UCB-J Binding (%),"[1]; 30 µM UCB1244283, 25 min",30.01% and 19.16% and 35.10%
same,3H-UCB-J Binding (%),"[1]; 30 µM UCB1244283, 50 min",2.00% and 8.63% and 4.06%
same,3H-UCB-J Binding (%),"[1]; 30 µM UCB1244283, 60 min",0.00%
same,3H-UCB-J Binding (%),"[1]; 30 µM UCB1244283, 70 min",13.54% and 8.21%
same,3H-UCB-J Binding (%),"[2]; 30 µM UCB1244283, 0 min",110.44% and 123.64%
same,3H-UCB-J Binding (%),"[2]; 30 µM UCB1244283, 4 min",30.89% and 37.36%
same,3H-UCB-J Binding (%),"[2]; 30 µM UCB1244283, 7 min",29.68% and 19.59%
same,3H-UCB-J Binding (%),"[2]; 30 µM UCB1244283, 8 min",17.69% and 24.42%
same,3H-UCB-J Binding (%),"[2]; 30 µM UCB1244283, 9 min",11.91% and 16.05%
same,3H-UCB-J Binding (%),"[2]; 30 µM UCB1244283, 10 min",2.24% and 11.65%
same,3H-UCB-J Binding (%),"[2]; 30 µM UCB1244283, 15 min",-0.26% and 9.40%
same,3H-UCB-J Binding (%),"[2]; 30 µM UCB1244283, 25 min",-3.97% and 3.97%
same,3H-UCB-J Binding (%),"[2]; 30 µM UCB1244283, 30 min",-0.60% and 3.19%
same,3H-UCB-J Binding (%),"[2]; 30 µM UCB1244283, 40 min",2.93% and 0.35%
same,3H-UCB-J Binding (%),"[2]; 30 µM UCB1244283, 50 min",6.38% and 7.42%
same,3H-UCB-J Binding (%),"[2]; 30 µM UCB1244283, 60 min",10.53% and 0.69%
same,3H-UCB-J Binding (%),"[2]; 30 µM UCB1244283, 70 min",5.09% and -0.95%
same,displacement of padsevonil from SV2A,SV2A,can displace padsevonil from SV2A in a dose-dependent manner
same,3H-Padsevonil binding (%),SV2A; UCB1244283 10 μM,91.0284% and 102.553% and 101.386% and 86.5062% and 91.3202%
same,3H-Padsevonil binding (%),SV2A; UCB1244283 30 μM,87.2356% and 88.6944% and 95.6966% and 92.1955% and 71.6265% and 83.5886%
same,3H-Padsevonil binding (%),SV2A; UCB1244283 50 μM,81.1087% and 81.984% and 86.5062% and 85.6309% and 65.7914% and 73.0853%
same,3H-Padsevonil binding (%),SV2A; UCB1244283 100 μM,69.7301% and 72.0642% and 78.9205% and 76.5864% and 67.5419%
same,3H-Padsevonil binding (%),SV2A; UCB1244283 500 μM,70.4595% and 69.4384% and 72.6477% and 70.0219% and 59.2268% and 71.4807%
